Data from the supplement of paper PMC10307832.

Assays:
Assay in all cases: relative viability (nuclei count vs DMSO), 5 days (fraction); higher = more cells survive
[1] = compound: CCc1c2c(nc3ccc(OC(=O)N4CCC(N5CCCCC5)CC4)cc13)-c1cc3c(c(=O)n1C2)COC(=O)[C@]3(O)CC [Irinotecan] + Nc1nc2[nH]cc(CCc3ccc(C(=O)N[C@@H](CCC(=O)O)C(=O)O)cc3)c2c(=O)[nH]1 [Pemetrexed] (partner 0.2 µM)
How it was run: (§1)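 Dosing by pin tool came one day after lung cancer cell lines were seeded in 1536-well plates, using either one drug or a fixed anchor-drug dose plus five library-drug doses (not always all listed) in √10 steps. After 5 days, nuclei were counted on 4× images. Relative viability is treated-well nuclei count divided by vehicle-well nuclei count, and values are medians of duplicate plates.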

[2] = compound: CC[C@@H](C)CNCC(=O)N1CCC2=C([C@@H]1COC3=CC=CC(=C3)C)C=CS2 [RU-SKI 43] + O=C(c1cc(Cc2n[nH]c(=O)c3ccccc23)ccc1F)N1CCN(C(=O)C2CC2)CC1 [Olaparib] (partner 8 µM)
How it was run: as §1

[3] = compound: CCc1c2c(nc3ccc(OC(=O)N4CCC(N5CCCCC5)CC4)cc13)-c1cc3c(c(=O)n1C2)COC(=O)[C@]3(O)CC [Irinotecan] + O=C(c1cc(Cc2n[nH]c(=O)c3ccccc23)ccc1F)N1CCN(C(=O)C2CC2)CC1 [Olaparib] (partner 8 µM)
How it was run: as §1

[4] = compound: CCc1c2c(nc3ccc(OC(=O)N4CCC(N5CCCCC5)CC4)cc13)-c1cc3c(c(=O)n1C2)COC(=O)[C@]3(O)CC [Irinotecan] + N=C(N)NC(=N)NCCc1ccccc1 [Phenformin] (partner 250 µM)
How it was run: as §1

Cell Line	relative viability ([1]; first compound 0.6325 µM)	relative viability ([1]; first compound 2 µM)	relative viability ([1]; first compound 6.325 µM)	relative viability ([1]; first compound 20 µM)	relative viability ([2]; first compound 0.1 µM)	relative viability ([2]; first compound 0.3162 µM)	relative viability ([2]; first compound 1 µM)	relative viability ([2]; first compound 3.162 µM)	relative viability ([2]; first compound 10 µM)	relative viability ([3]; first compound 0.6325 µM)	relative viability ([3]; first compound 2 µM)	relative viability ([3]; first compound 6.325 µM)	relative viability ([3]; first compound 20 µM)	relative viability ([4]; first compound 0.6325 µM)	relative viability ([4]; first compound 2 µM)	relative viability ([4]; first compound 6.325 µM)	relative viability ([4]; first compound 20 µM)
NCI-H522	0.966	0.824	0.566	0.498	0.661	0.641	0.596	0.707	0.601	0.493	0.532	0.453	0.525	0.578	0.567	0.514	0.564
NCI-H358	0.167	0.19	0.146	0.167	0.548	0.936	0.756	0.636	0.545	0.215	0.286	0.158	0.109	0.273	0.278	0.125	0.0851
NCI-H1755	0.383	0.45	0.39	0.448	0.835	0.975	0.99	0.923	0.908	0.482	0.358	0.372	0.42	0.498	0.603	0.296	0.307
LCLC-103H	0.477	0.471	0.508	0.516	0.748	0.865	0.882	0.829	0.816	0.469	0.483	0.407	0.444	0.344	0.358	0.256	0.321
HOP-62	0.0967	0.337	0.17	0.166	0.322	0.235	0.223	0.511	0.436		0.201	0.147	0.169	0.443	0.532	0.267	0.204
HCC-78	0.87	0.99	0.897	0.94	0.849	1.02	0.767	0.868	0.856	0.492	0.332	0.233	0.343	0.733	0.546	0.257	0.229
NCI-H650	0.749	0.838	0.229	0.201	0.404	0.517		0.38	0.406	0.181	0.199	0.185	0.198	0.36	0.409	0.239	0.248
NCI-H1563	0.649	0.777	0.756	0.671										0.634	0.691	0.608	0.38
ABC-1					0.714	0.786	0.908	0.926	0.705		0.68	0.421	0.375		0.292	0.229	0.0948
Calu-6					0.555	0.621	0.622	0.615	0.499	0.258	0.326	0.225	0.128				
EBC-1					0.817	0.883	0.759	0.729	0.642	0.228	0.224	0.257	0.188				
NCI-H520	0.509	0.277	0.273	0.167	0.35	0.292	0.372	0.344	0.335	0.23	0.277	0.309	0.145	0.542	0.649	0.317	0.258
NCI-H322M	0.568	0.659	0.518	0.266	0.703	0.817	0.76	0.797	0.703	0.135	0.642	0.538	0.235	0.745	0.758	0.515	0.265
201T	0.274	0.308	0.271	0.283	0.835	0.888	0.843	0.858	0.836	0.53	0.312	0.231	0.264		0.489	0.361	0.333
RERF-LC-KJ	0.321	0.435	0.44	0.211	0.818	1.04	0.914	0.876	0.811	0.806	0.56	0.38	0.243	0.47	0.325	0.345	0.246
A549					0.362	0.462	0.277	0.278	0.291	0.073	0.186	0.0779	0.0719		0.198	0.113	0.0897
NCI-H1648	0.703	0.68	0.453	0.423	1.02	1.06	0.614	0.91	0.835	0.525	0.388	0.35	0.276				
NCI-H1623														0.548	0.696	0.233	0.219
NCI-H1651	0.25	0.638	0.356	0.147	0.16	0.188	0.195	0.213	0.185	0.164	0.142	0.107	0.117	0.259	0.34	0.242	0.14
NCI-H2405		1.12	0.315	0.256	0.835	0.885	0.905	0.855	0.842		0.495	0.256	0.0989		0.392	0.309	0.279
NCI-H727						0.515	0.694	0.67	0.624	0.723	0.454	0.66	0.656	0.464	0.611	0.524	0.413
EMC-BAC-2	0.389	0.393	0.312	0.244	0.476	0.495	0.54	0.487	0.486	0.276	0.292	0.274	0.158	0.336	0.399	0.271	0.276
